Measured values from publication PMC12638379, “An innovative approach to development of new pyrazolylquinolin-2-one hybrids as dual EGFR and BRAF^V600E inhibitors” (Molecular Diversity, 2025).
Where two headings read alike, the source gives them in different places.

How the values were obtained:
[1] = biological target: T1, EGFR (Homo sapiens, UniProt P00533); assay: EGFR inhibitory assay; type: biochemical; settings: for %inh: EGFR, unit not given
T1 construct: EGFR cytoplasmic domain (EGFR-CD, amino acids 645–1186); His6 (N); made in house; host or cells: Sf-9 insect cells (baculovirus)

[2] = tested on: NCI 60 cancer cell lines; assay: NCI anticancer screening over a panel of 60 cancer cells, single concentration 10 µM; type: cell-based, human; settings: Homo sapiens, read-out: % Growth Inhibition (GI %)
Procedure, shortened: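 Primary single-dose screen at 10 µM over the NCI panel of 60 human tumour cell lines (leukemia, CNS, lung, colon, kidney, ovary, breast, prostate). The standard NCI Developmental Therapeutics Program protocol was used.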

[3] = tested on: leukemia (MOLT-4) cell line; assay: MTT antiproliferative assay, MOLT-4; type: cell-based, human
Method: (§1) After 24 h of culture incubation and supernatants discarded.

[4] = tested on: normal cell line WI-38; assay: MTT cytotoxicity on normal cell line WI-38
[5] = MTT cytotoxicity on normal cell line WI-38; settings: human, WI-38 normal cells, % viability
[6] = tested on: lung cancer (HOP-92) cell line; assay: MTT antiproliferative assay, HOP-92; type: cell-based, human
Method: […]. […] See Appendix B.
as §1

[7] = biological target: BRAF^V600E (Homo sapiens, UniProt P15056, V600E); assay: BRAF^V600E inhibitory assay (B-Raf (V600E) Kinase Assay); type: biochemical; settings: read-out: BRAF^V600E inhibition IC50 ± SEM
Chain of BRAF^V600E (P15056 whole entry V600E): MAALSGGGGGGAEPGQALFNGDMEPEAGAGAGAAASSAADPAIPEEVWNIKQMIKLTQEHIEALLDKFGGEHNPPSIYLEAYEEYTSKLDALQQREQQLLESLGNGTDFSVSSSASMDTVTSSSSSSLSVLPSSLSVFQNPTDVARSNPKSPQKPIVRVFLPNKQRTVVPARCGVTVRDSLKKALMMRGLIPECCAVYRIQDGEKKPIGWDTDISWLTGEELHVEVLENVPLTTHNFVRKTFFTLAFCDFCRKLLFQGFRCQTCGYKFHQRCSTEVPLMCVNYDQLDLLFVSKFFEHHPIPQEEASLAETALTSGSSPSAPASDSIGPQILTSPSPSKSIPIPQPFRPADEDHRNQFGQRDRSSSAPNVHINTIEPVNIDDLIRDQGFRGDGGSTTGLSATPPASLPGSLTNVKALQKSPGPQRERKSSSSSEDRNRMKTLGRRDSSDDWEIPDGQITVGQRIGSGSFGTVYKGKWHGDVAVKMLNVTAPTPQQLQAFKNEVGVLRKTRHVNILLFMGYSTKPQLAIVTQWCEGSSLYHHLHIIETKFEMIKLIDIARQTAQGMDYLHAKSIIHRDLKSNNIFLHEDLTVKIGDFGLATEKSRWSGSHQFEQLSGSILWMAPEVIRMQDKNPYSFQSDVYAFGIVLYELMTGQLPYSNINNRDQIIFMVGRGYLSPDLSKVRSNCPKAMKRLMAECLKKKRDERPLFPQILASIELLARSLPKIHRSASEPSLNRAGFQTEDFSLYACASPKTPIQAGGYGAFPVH

T1 sequence (P00533 669-1210): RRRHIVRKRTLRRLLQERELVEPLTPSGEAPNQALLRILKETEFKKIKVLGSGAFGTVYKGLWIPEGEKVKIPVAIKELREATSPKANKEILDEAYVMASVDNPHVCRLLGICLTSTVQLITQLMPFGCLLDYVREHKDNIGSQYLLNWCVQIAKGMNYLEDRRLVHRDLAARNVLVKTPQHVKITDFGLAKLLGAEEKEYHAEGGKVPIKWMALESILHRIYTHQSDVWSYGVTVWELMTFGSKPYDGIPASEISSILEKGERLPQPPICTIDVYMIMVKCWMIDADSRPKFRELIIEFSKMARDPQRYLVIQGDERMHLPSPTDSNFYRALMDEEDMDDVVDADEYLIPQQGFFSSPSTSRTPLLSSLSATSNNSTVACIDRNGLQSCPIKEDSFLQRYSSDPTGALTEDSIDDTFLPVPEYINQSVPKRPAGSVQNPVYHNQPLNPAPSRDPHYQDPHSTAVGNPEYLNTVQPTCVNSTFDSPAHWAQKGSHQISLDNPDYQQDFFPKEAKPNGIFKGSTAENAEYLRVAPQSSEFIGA

With `C/C(=N\Nc1ccc(S(N)(=O)=O)cc1)c1cnn(-c2cc(=O)[nH]c3ccc(Cl)cc23)c1C` [Compound 4d, (E)-4-(2-(1-(1-(6-chloro-2-oxo-1,2-dihydroquinolin-4-yl)-5-methyl-1H-pyrazol-4-yl)ethylidene)hydrazineyl)benzenesulfonamide] the “%inh” value ([1]; conc 0.01 (log -2)) was 27.8%, the “%inh” value ([1]; conc 0.1 (log -1)) was 40.6% and the “%inh” value ([1]; conc 1 (log 0)) was 72.7%. For the same compound, the “%inh” value ([1]; conc 10 (log 1)) was 86.9%, the “%inh” value ([1]; conc 100 (log 2)) was 93.7% and the IC50 ([1]; read-out: EGFR inhibition IC50 ± SEM) was 0.156 ± 0.006 µM. The inhibition at 10 µM ([2]; 786-0, Renal cancer 786-0, 10 μM) was 14.4%, the inhibition at 10 µM ([2]; A498, Renal cancer A498, 10 μM) was less than 5% and the inhibition at 10 µM ([2]; A549, Non-small cell lung cancer A549/ATCC, 10 μM) was less than 5%. It also gave an inhibition at 10 µM ([2]; ACHN, Renal cancer ACHN, 10 μM) of 14.1%, an inhibition at 10 µM ([2]; BT-549, Breast cancer BT-549, 10 μM) of 56.3% and an inhibition at 10 µM ([2]; CAKI-1, Renal cancer CAKI-1, 10 μM) of 21.5%. The inhibition at 10 µM ([2]; CCRF-CEM, Leukemia CCRF-CEM, 10 μM) was 52.2%, the inhibition at 10 µM ([2]; COLO 205, Colon cancer COLO 205, 10 μM) was less than 5% and the inhibition at 10 µM ([2]; DU-145, Prostate cancer DU-145, 10 μM) was 10.9%. For the same compound, the inhibition at 10 µM ([2]; EKVX, Non-small cell lung cancer EKVX, 10 μM) was 10.1%, the inhibition at 10 µM ([2]; HCC 2998, Colon cancer HCC-2998, 10 μM) was less than 5% and the inhibition at 10 µM ([2]; HCT-15, Colon cancer HCT-15, 10 μM) was less than 5%. For the same compound, the inhibition at 10 µM ([2]; HCT-116, Colon cancer HCT-116, 10 μM) was 19.1%, the inhibition at 10 µM ([2]; HL-60, Leukemia HL-60(TB), 10 μM) was less than 5% and the inhibition at 10 µM ([2]; HOP-62, Non-small cell lung cancer HOP-62, 10 μM) was 24.6%. The inhibition at 10 µM ([2]; HOP-92, Non-small cell lung cancer HOP-92, 10 μM) was less than 5%, the inhibition at 10 µM ([2]; HT-29, Colon cancer HT29, 10 μM) was less than 5% and the inhibition at 10 µM ([2]; Hs-578T, Breast cancer HS 578T, 10 μM) was 36.3%. The inhibition at 10 µM ([2]; IGROV-1, Ovarian cancer IGROV1, 10 μM) was 14.6%, the inhibition at 10 µM ([2]; K562, Leukemia K-562, 10 μM) was 29.7% and the inhibition at 10 µM ([2]; KM12, Colon cancer KM12, 10 μM) was 16.7%. It also gave an inhibition at 10 µM ([2]; LOX IMVI, Melanoma LOX IMVI, 10 μM) of 29%, an inhibition at 10 µM ([2]; Leukemia SR, 10 μM) of 71.6% and an inhibition at 10 µM ([2]; MCF7, Breast cancer MCF7, 10 μM) of 36.3%. The inhibition at 10 µM ([2]; MDA-MB-231, Breast cancer MDA-MB-231/ATCC, 10 μM) was 51.7%, the inhibition at 10 µM ([2]; MDA-MB-435, Melanoma MDA-MB-435, 10 μM) was 27.3% and the inhibition at 10 µM ([2]; MDA-MB-468, Breast cancer MDA-MB-468, 10 μM) was 47.2%. The inhibition at 10 µM ([2]; MOLT-4, Leukemia MOLT-4, 10 μM) was 34.3%, the inhibition at 10 µM ([2]; Melanoma M14, 10 μM) was 20.7% and the inhibition at 10 µM ([2]; Melanoma MALM-3M, 10 μM) was 44.5%. The inhibition at 10 µM ([2]; NCI-H23, Non-small cell lung cancer NCI-H23, 10 μM) was 16.9%, the inhibition at 10 µM ([2]; NCI-H226, Non-small cell lung cancer NCI-H226, 10 μM) was 17.6% and the inhibition at 10 µM ([2]; NCI-H322M, Non-small cell lung cancer NCI-H322M, 10 μM) was 8.41%. It also gave an inhibition at 10 µM ([2]; NCI-H460, Non-small cell lung cancer NCI-H460, 10 μM) of 6.52%, an inhibition at 10 µM ([2]; NCI-H522, Non-small cell lung cancer NCI-H522, 10 μM) of 44.8% and an inhibition at 10 µM ([2]; NCI/ADR-RES, Ovarian cancer NCI/ADR-RES, 10 μM) of 5.85%. The inhibition at 10 µM ([2]; OVCAR-3, Ovarian cancer OVCAR-3, 10 μM) was 23.4%, the inhibition at 10 µM ([2]; OVCAR-4, Ovarian cancer OVCAR-4, 10 μM) was 24.2% and the inhibition at 10 µM ([2]; OVCAR-5, Ovarian cancer OVCAR-5, 10 μM) was 11.5%. The inhibition at 10 µM ([2]; OVCAR-8, Ovarian cancer OVCAR-8, 10 μM) was 6.15%, the inhibition at 10 µM ([2]; Prostate cancer PC-3, 10 μM) was 18.5% and the inhibition at 10 µM ([2]; RPMI-8226, Leukemia RPMI-8226, 10 μM) was 15.7%. It also gave an inhibition at 10 µM ([2]; RXF 393, Renal cancer RXF 393, 10 μM) of less than 5%, an inhibition at 10 µM ([2]; SF-268, CNS Cancer SF-268, 10 μM) of 28.7% and an inhibition at 10 µM ([2]; SF-295, CNS Cancer SF-295, 10 μM) of 9.48%. For the same compound, the inhibition at 10 µM ([2]; SF-539, CNS Cancer SF-539, 10 μM) was 33%, the inhibition at 10 µM ([2]; SK-MEL-2, Melanoma SK-MEL-2, 10 μM) was 27.2% and the inhibition at 10 µM ([2]; SK-MEL-5, Melanoma SK-MEL-5, 10 μM) was 21.8%. It also gave an inhibition at 10 µM ([2]; SK-MEL-28, Melanoma SK-MEL-28, 10 μM) of 24.7%, an inhibition at 10 µM ([2]; SK-OV-3, Ovarian cancer SK-OV-3, 10 μM) of 24.1% and an inhibition at 10 µM ([2]; SN12C, Renal cancer SN12C, 10 μM) of 27%. The inhibition at 10 µM ([2]; SNB-19, CNS Cancer SNB-19, 10 μM) was 24.9%, the inhibition at 10 µM ([2]; SNB-75, CNS Cancer SNB-75, 10 μM) was 35.4% and the inhibition at 10 µM ([2]; SW-620, Colon cancer SW-620, 10 μM) was 7.13%. For the same compound, the inhibition at 10 µM ([2]; T47D, Breast cancer T-47D, 10 μM) was 54%, the inhibition at 10 µM ([2]; TK-10, Renal cancer TK-10, 10 μM) was less than 5% and the inhibition at 10 µM ([2]; U-251, CNS Cancer U251, 10 μM) was 26.3%. It also gave an inhibition at 10 µM ([2]; UACC-62, Melanoma UACC-62, 10 μM) of 41.8%, an inhibition at 10 µM ([2]; UACC-257, Melanoma UACC-257, 10 μM) of 4.52% and an inhibition at 10 µM ([2]; UO-31, Renal cancer UO-31, 10 μM) of 37.7%. For the same compound, the viability at 0.4 µM ([3]; Homo sapiens, MOLT-4, MOLT-4, MTT, 0.4uM) was 69.9%, the viability at 1.6 µM ([3]; Homo sapiens, MOLT-4, MOLT-4, MTT, 1.6uM) was 62.7% and the viability at 6.3 µM ([3]; Homo sapiens, MOLT-4, MOLT-4, MTT, 6.3uM) was 51.6%. The viability at 25 µM ([3]; Homo sapiens, MOLT-4, MOLT-4, MTT, 25uM) was 40.9%, the viability at 100 µM ([3]; Homo sapiens, MOLT-4, MOLT-4, MTT, 100uM) was 30.2% and the IC50 ([3]; Homo sapiens, MOLT-4, MTT, read-out: Antiproliferative activity IC50 ± SEM, MOLT-4) was 7.24 ± 0.29 µM. The “% viability” value ([3]; MOLT-4, MTT, 0.4uM, listed as Ws4, 0.4 µM) was 69.89%, the “% viability” value ([3]; MOLT-4, MTT, 1.6uM, listed as Ws4, 1.6 µM) was 62.75% and the “% viability” value ([3]; MOLT-4, MTT, 25uM, listed as Ws4, 25 µM) was 40.91%. The “% viability” value ([3]; MOLT-4, MTT, 100uM, listed as Ws4, 100 µM) was 30.23%, the IC50 ([4]; Homo sapiens, read-out: Antiproliferative activity IC50 ± SEM) was 62.5 ± 2.49 µM and the “% viability” value ([4]; WI38, 0.4uM (log conc. -0.41), listed as Ws4, 0.4 µM) was 80.87%. The “% viability” value ([4]; WI38, 1.6uM (log conc. 0.19), listed as Ws4, 1.6 µM) was 73.32%, the “% viability” value ([4]; WI38, 6.3uM (log conc. 0.8), listed as Ws4, 6.3 µM) was 63.52% and the “% viability” value ([4]; WI38, 25uM (log conc. 1.4), listed as Ws4, 25 µM) was 56.21%. The “% viability” value ([4]; WI38, 100uM (log conc. 2), listed as Ws4, 100 µM) was 46.82%, the viability at 24 h, 0.4 µM ([5]; WI38, 0.4uM (log conc. -0.41)) was 80.9% and the viability at 24 h, 1.6 µM ([5]; WI38, 1.6uM (log conc. 0.19)) was 73.3%. It also gave a viability at 24 h, 6.3 µM ([5]; WI38, 6.3uM (log conc. 0.8)) of 63.5%, a viability at 24 h, 25 µM ([5]; WI38, 25uM (log conc. 1.4)) of 56.2% and a viability at 24 h, 100 µM ([5]; WI38, 100uM (log conc. 2)) of 46.8%. The “% viability” value ([6]; HOP-92, MTT, 0.4uM, listed as Ws4, 0.4 µM) was 85.21%, the “% viability” value ([6]; HOP-92, MTT, 1.6uM, listed as Ws4, 1.6 µM) was 75.93% and the “% viability” value ([6]; HOP-92, MTT, 6.3uM, listed as Ws4, 6.3 µM) was 64.52%. The “% viability” value ([6]; HOP-92, MTT, 25uM, listed as Ws4, 25 µM) was 52.12%, the “% viability” value ([6]; HOP-92, MTT, 100uM, listed as Ws4, 100 µM) was 42.18% and the viability at 0.4 µM ([6]; Homo sapiens, HOP-92, HOP-92, MTT, 0.4uM, read-out: % viability) was 85.2%. For the same compound, the viability at 1.6 µM ([6]; Homo sapiens, HOP-92, HOP-92, MTT, 1.6uM, read-out: % viability) was 75.9%, the viability at 6.3 µM ([6]; Homo sapiens, HOP-92, HOP-92, MTT, 6.3uM, read-out: % viability) was 64.5% and the viability at 25 µM ([6]; Homo sapiens, HOP-92, HOP-92, MTT, 25uM, read-out: % viability) was 52.1%. The viability at 100 µM ([6]; Homo sapiens, HOP-92, HOP-92, MTT, 100uM, read-out: % viability) was 42.2%, the IC50 ([6]; Homo sapiens, HOP-92, MTT, read-out: Antiproliferative activity IC50 ± SEM, HOP-92) was 36.5 ± 1.46 µM and the IC50 [7] was 0.249 ± 0.01 µM.
